The source made the active and inactive calls. How the calls were made is not given here.
Tested on: Leishmania donovani growth inhibition
Experiment: Leishmania donovani growth inhibition (AID 1159560);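 further: parasites exposed to compound for 72 h before the viability read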

| SMILES | IC50 |
| --- | --- |
| COc1ccccc1C(=O)Nc1nnc(-c2ccc3c(c2)OCO3)s1 | 1 µM |
| CC1CN(S(=O)(=O)c2ccc(NC(=O)c3cc(C4CC4)nc4c3cnn4C(C)C)cc2)CC(C)O1 (stereo unspecified) | 20 µM |
| Cc1cc(NC(=O)C2CC2)ccc1OC1CCN(Cc2ccco2)CC1 | > 50 µM (inactive) |
| COc1ccc(C2CC(c3ccccc3Cl)=NN2C(=O)CNC(=O)C2CCCC2)cc1 (stereo unspecified) | > 50 µM (inactive) |
| CC(C)(C)c1csc(NC(=O)c2ccc([N+](=O)[O-])s2)n1 | 1.6 µM |
| Cc1cc(NC(=O)c2ccc([N+](=O)[O-])s2)ccc1Br | 3.2 µM |
| Cc1occc1C(=O)Nc1ccccc1C(=O)Nc1nccs1 | > 50 µM (inactive) |
| CCOc1ccc(N(C)S(=O)(=O)c2ccc3[nH]cc(C(=O)NC4CCCC4)c(=O)c3c2)cc1 | > 50 µM (inactive) |
| Fc1ccc(Nc2nc(-c3ccccn3)cs2)cc1 | 20 µM |
| Cc1[nH]n2c(=O)c3c(nc2c1-c1ccc(F)cc1)CCCC3 | 1.3 µM |
| NC(=O)c1ncccc1Nc1nc(NC2CCC(O)CC2)ncc1Br (stereo unspecified) | 1.3 µM |
| COc1ccc2ncc(Cl)c(CCN3CC[C@@H](NCc4cc5c(cn4)OCS5)[C@H](O)C3)c2n1 | 10 µM |
| COc1ccc(NC(=O)c2ccc(NC(=O)CN(c3ccccc3C)S(C)(=O)=O)cc2)cc1 | > 50 µM (inactive) |
| Oc1cccnc1-c1n[nH]c(Cc2ccccc2)n1 | 2 µM |
| CN(Cc1nc2ccc(C(=O)NCC3CCCCC3)cc2[nH]1)C1CCCc2cccnc21 (stereo unspecified) | 3.2 µM |
| N#Cc1ccc(C(=O)Nc2cccc(-c3cccc(CN4CCC(O)CC4)c3)c2)cc1 | > 50 µM (inactive) |
| CCOc1ccc(OCC(=O)N2c3ccccc3CC2C(=O)NC)cc1 (stereo unspecified) | > 50 µM (inactive) |
| N#Cc1cccc(CNc2ccc(-c3cnn(CC4CC4)c(=O)c3C#N)cc2)c1 | 25 µM |
| COc1ccc(-c2nc3ncccc3o2)cc1NC(=O)c1cccs1 | 5 µM |
| Cc1cc(Nc2cc(C3CC3)[nH]n2)nc(N2CCCC2)n1 | 0.79 µM |
| Cc1cccc(N2CCCN(Cc3c[nH]c4ccccc34)CC2)n1 | > 50 µM (inactive) |
| O=C(N[C@H](CO)c1ccccc1)c1ccc(-c2c[nH]c3nccc(C(F)(F)F)c23)s1 | 32 µM |

| SMILES | IC50 |
| --- | --- |
| CN1CCN(c2nc(-c3ccc(Cl)cc3)c3c(N)n(C)nc3n2)CC1 | > 50 µM (inactive) |
| CNc1nc(C)nc(N2CCc3cc(C(=O)NCc4ccc(-c5nccn5C)cc4Cl)ccc32)n1 | 5 µM |
| COc1ccc(-c2cnc(NC(=O)c3ccc(F)cc3)n2C)cc1 | 3.2 µM |
| Oc1c(-c2n[nH]c(Cc3ccc(F)cc3)n2)ncc2cccnc12 | 0.13 µM |
| COc1ccccc1CNc1cc(C2CC2)nc(-c2nccn2C)n1 | 1 µM |
| CCN(CC)c1ncc(C(=O)c2ccc([N+](=O)[O-])o2)s1 | 5 µM |
| O=c1[nH]c(NCCCNCc2cc(Br)cc(Br)c2)nc2ccsc12 | 16 µM |
| O=C(NC1C(=O)N(c2ccccc2)C1c1cccnc1)c1ccc(Cl)s1 (stereo unspecified) | 1 µM |
| Cc1cccc(NS(=O)(=O)c2cnc3sc(C)cn3c2=O)c1 | > 50 µM (inactive) |
| CCc1cccc(CC)c1-n1c(SCC(=O)N2CC(=O)Nc3ccccc32)nnc1-c1cccnc1 | 40 µM |
| CN(C)c1ccc(N)cc1CN(CC1CCCO1)S(C)(=O)=O (stereo unspecified) | 4 µM |
| Cc1[nH]n2c(=O)c3c(nc2c1-c1ccc(Br)cc1)CCCC3 | 10 µM |
| O=C(Nc1nc(-c2ccc(S(=O)(=O)N3CCOCC3)cc2)cs1)c1ccc([N+](=O)[O-])cc1 | > 50 µM (inactive) |
| O=C(Cc1ccccc1)Nc1[nH]nc2sc(C(=O)NC3CCCC3)cc12 | 4 µM |
| O=C(CN(Cc1ccccn1)Cc1ccccn1)NCc1csc(-c2cccs2)n1 | 13 µM |
| O=C(Nc1ccc(S(=O)(=O)N2CCCC2)cc1)c1ccc([N+](=O)[O-])s1 | 7.9 µM |
| N#Cc1ccc(S(=O)(=O)N2CCN(Cc3cccc(-c4ccncc4)c3)CC2)cc1 | > 50 µM (inactive) |
| Cc1cc(N2CCc3ccccc3C2)nc(Nc2ccc(S(=O)(=O)N3CCOCC3)cc2)n1 | 3.2 µM |
| O=C1NCc2cccc(Nc3nc(NC4CCC(O)CC4)ncc3Br)c21 (stereo unspecified) | 0.79 µM |
| CC(C)(C)C(=O)NCCc1csc(-c2ccc(F)cc2)n1 | > 50 µM (inactive) |
| CC(=O)Nc1ccc(Nc2nccc(-c3cnn4ncccc34)n2)cc1C(F)(F)F | 0.2 µM |
| CC(C)c1cc(Nc2cc(Cc3ccccc3)nc(NC3CCC(O)CC3)n2)n[nH]1 (stereo unspecified) | 3.2 µM |

| SMILES | IC50 |
| --- | --- |
| NCC(Cc1ccccc1)NC(=O)c1cnc(-c2c[nH]c3ncccc23)s1 (stereo unspecified) | > 50 µM (inactive) |
| COc1ccc(C2C3CCCCC3(O)CCN2CC(=O)Nc2ccc(Cl)cc2Cl)cc1 (stereo unspecified) | 1.6 µM |
| COc1ccc(OC)c(NC(=O)c2ccc([N+](=O)[O-])o2)c1 | 25 µM |
| CC(Cn1ccnc1)NC(=O)C=Cc1ccc(Cl)cc1 (stereo unspecified) | > 50 µM (inactive) |
| O=C(COc1nn(-c2ccccc2)c2ncccc12)NCc1ccccc1 | 0.4 µM |
| c1ccc(CNc2cccc3ccncc23)cc1 | 10 µM |
| O=C(c1ccccc1)N1CCC(C(=O)N2CCC(Oc3ccccc3Cl)CC2)CC1 | > 50 µM (inactive) |
| COc1ccc2c(Cl)c(C(=O)N3CCC3)sc2c1Cl | > 50 µM (inactive) |
| Cc1c(C(=O)NCCCCn2ccnc2)oc2c(C)cccc12 | > 50 µM (inactive) |
| CCOc1cc(NCCCN2CCN(C)CC2)c2ncccc2c1 | 40 µM |
| Cc1nc2c(-c3cccs3)c(C)nn2c(NCCO)c1C | > 50 µM (inactive) |
| O=c1[nH]cnc2c([C@@H]3O[C@H](CO)[C@@H](O)[C@H]3O)[nH]nc12 | 0.4 µM |
| COc1ccc(C2CC(c3ccc(NS(C)(=O)=O)cc3)=NN2C(=O)c2cccs2)cc1OC (stereo unspecified) | 13 µM |
| Cc1cc(Nc2ccc(C#N)c(Cl)c2C)n[nH]1 | 50 µM |
| Cc1[nH]n2c(=O)c3c(nc2c1-c1ccc(Cl)cc1)CCCC3 | 1.3 µM |
| Cc1cc(C)n(-c2nc(NC(C)C)nc(NC(C)(C)C)n2)n1 | 3.2 µM |
| CC(C)c1sc(Cl)nc1C(=O)NCCc1nc(C(=O)Nc2ccc3c(c2)OCO3)cs1 | 4 µM |
| Cc1nnnn1-c1cccc(C(=O)N2CCC[C@@]3(C)c4ncncc4CCC23)c1 (stereo partly specified) | 0.4 µM |
| O=C(Nc1ccc(C(F)(F)F)cc1)Nc1cccc([N+](=O)[O-])c1 | 7.9 µM |
| CC(=O)Nc1ccc(CN2CCC(N3CC(c4ccccc4)(c4ccccc4)OCC3=O)CC2)cc1 | 0.5 µM |
| Cc1cc(N(C)C)nc2ccc(Cc3cnc(N)nc3N)cc12 | > 50 µM (inactive) |
| CC1CN(Cc2ccc(C#N)cc2)CCN1c1ccc(NC(=O)c2ccccc2F)cc1 (stereo unspecified) | 40 µM |

| SMILES | IC50 |
| --- | --- |
| CN(CC1CCCO1)S(=O)(=O)c1ccc(C(=O)Nc2nc(-c3ccccn3)cs2)cc1 (stereo unspecified) | 1.3 µM |
| CN(CCOc1ccc(Cl)cc1)Cc1nc(N)nc(N(C)C)n1 | 16 µM |
| O=[N+]([O-])c1ccc(C2=CC(c3ccccc3)=NCCN2)cc1 | > 50 µM (inactive) |
| COc1ccc(C(C)(C)C)cc1S(=O)(=O)n1ccnc1 | 40 µM |
| Cn1ccnc1CN1CCc2[nH]cnc2C1c1ccccc1OCc1ccccc1 (stereo unspecified) | > 50 µM (inactive) |
| COc1cc(Cl)c(C)cc1NC(=O)c1ccc([N+](=O)[O-])s1 | 7.9 µM |
| c1ccc2c(CCOc3nccnc3-c3ccncc3)c[nH]c2c1 | 5 µM |
| O=C(NCCc1csc(-c2cccc(F)c2)n1)c1ccco1 | > 50 µM (inactive) |
| C[C@@H](Oc1cc(-n2cnc3ccc(O[C@H]4CCNC4)cc32)sc1C(N)=O)c1ccccc1Cl | > 50 µM (inactive) |
| CS(=O)(=O)c1ccc(Nc2nccc(-c3cnn4ncccc34)n2)cc1 | 0.79 µM |
| O=S(=O)(c1ccccc1C(F)(F)F)N1CCN(Cc2ccc(-n3ccnc3)cc2)CC1 | 6.3 µM |
| COc1ccnc2[nH]cc(-c3cc(C(=O)N[C@H](CO)c4ccccc4)co3)c12 | 25 µM |
| O=C(NCCNc1noc(-c2ccc([N+](=O)[O-])cc2)n1)c1ccc(Cl)cc1 | > 50 µM (inactive) |
| COc1ccc(C(=O)Nc2cc(C(F)(F)F)ccc2N2CCOCC2)c(OC)c1 | 5 µM |
| Clc1ccc(OCCN2CCCCC2c2cccnc2)c(Cl)c1 (stereo unspecified) | 5 µM |
| O=C(Nc1cccc(S(=O)(=O)Nc2ccc(Br)cc2)c1)c1ccc([N+](=O)[O-])s1 | 0.79 µM |
| CN(C)Cc1ccc(-c2ccc(S(=O)(=O)NCC3CCCO3)c(F)c2)cc1 (stereo unspecified) | > 63 µM (inactive) |
| O=C(Nc1ccc(C(=O)N2CCCC2c2ccc3c(c2)OCCCO3)cc1)c1ccco1 (stereo unspecified) | 0.79 µM |
| CCN(CC)S(=O)(=O)c1ccc(C(=O)Nc2cc(C)nn2-c2nc(C)c(C)c(=O)[nH]2)cc1 | 0.5 µM |
| Cc1ccc(S(C)(=O)=O)cc1Nc1nccc(-c2sc(N)nc2-c2ccccc2)n1 | 3.2 µM |
| Cn1c(CN2CCN(c3ncc(C(F)(F)F)cc3Cl)CC2)nc2ccncc21 | 5 µM |
| O=C(NCC1CCCCC1)c1cnns1 | 13 µM |

| SMILES | IC50 |
| --- | --- |
| COc1ccc(Nc2nc(-c3ccccn3)cc(N3CCCC(O)C3)n2)cc1 (stereo unspecified) | 2.5 µM |
| O=C(NCCc1cccnc1)c1csc(-c2ccccc2)n1 | > 50 µM (inactive) |
| O=C(NCc1nnc2n1CCCCC2)c1ccc(-c2ccc(F)cc2)o1 | > 50 µM (inactive) |
| N#Cc1ccc(S(=O)(=O)N2CCC3(CCN(c4ccccc4)C3=O)CC2)cc1 | > 50 µM (inactive) |
| Cc1cc(C#N)c([N+](=O)[O-])cc1Br | 25 µM |
| CCc1ccc2nc(NC(=O)c3cc(N4CCOCC4)ccn3)sc2c1 | 2 µM |
| O=c1cc(NCCCNC2CCOc3c(I)cc(Cl)cc32)[nH]c2ccccc12 (stereo unspecified) | 32 µM |
| Cc1ccccc1NS(=O)(=O)c1ccc2[nH]cc(C(=O)NC3CCCC(C)C3C)c(=O)c2c1 (stereo unspecified) | 25 µM |
| CN1CCC(N(C)c2nccc(N3CCN(C(=O)c4cccc(-c5cccnc5)c4)CC3)n2)CC1 | > 50 µM (inactive) |
| CC(C(=O)Nc1ccc(Br)cc1)N1CCN(c2ccc([N+](=O)[O-])cc2)CC1 (stereo unspecified) | > 50 µM (inactive) |
| O=C(CN1CCC2(O)CCCCC2C1c1ccc2c(c1)OCO2)Nc1ccc(Cl)cc1Cl (stereo unspecified) | 5 µM |
| Cc1nc2c(-c3nc(-c4ccc(N)cc4)n[nH]3)cccn2c1C | 3.2 µM |
| CC(C)(C)C(O)(CCc1ccc(Cl)cc1)Cn1cncn1 (stereo unspecified) | 3.2 µM |
| COc1cccc(CCNC(=O)C(c2cn[nH]c2)N2CCN(c3ccc(Cl)cc3)CC2)c1 (stereo unspecified) | 13 µM |
| Cc1cc2cncn2c(C2CCCCN2C(=O)c2cccs2)n1 (stereo unspecified) | 0.4 µM |
| Cn1cncc1CN1CCC2(CC1)COC(Cc1ccccc1)C2 (stereo unspecified) | 13 µM |
| NC(=O)c1ccc(-c2cccc(OCCN3CCN(C4CCCCC4)CC3)c2)cc1 | > 50 µM (inactive) |
| CC(C(=O)Nc1ccccc1F)N(C)CC(=O)Nc1cccc2ccccc12 (stereo unspecified) | 50 µM |

Reference: PubChem BioAssay AID1159560 (GlaxoSmithKline (GSK), 2015)
